Experiments:
[1] = target: T1, HiBit-BRG1 fusion protein (Homo sapiens, UniProt P51532); experiment: HiBiT-BRG1 cell-based degradation assay (Nano-Glo HiBiT Lytic Detection, 24 h); conditions: stable HeLa cell line expressing HiBit-BRG1 and LgBit; for Dmax: read-out: BRG1 HiBit Degradation Maximum (%); for DC50: read-out: BRMG1 HiBit Degradation IC50
T1 construct: expressed in transfected cells
Method: (§1) Procedure: A stable HeLa cell line expressing HiBiT-BRM was generated. On day 0, 5000 cells were seeded in 40 μL of media into each well of 384-well cell culture plates. On day 1, cells were treated with 120 nL DMSO or 120 nL of 3-fold serially DMSO-diluted compounds (10 points in duplicate with 30 μM as final top dose). Subsequently plates were incubated for 24 h in a standard tissue culture incubator and equilibrated at room temperature for 15 minutes. Nano-Glo HiBiT Lytic Detection System (Promega N3050) reagent was freshly prepared and 20 ul was added to each well. Upon addition of this LgBit-containing reagent, the HiBiT and LgBiT proteins associate to form the luminescent NanoBiT Iuciferase. The plates were shaken for 10 minutes at room temperature and the bioluminescence read using an EnVision plate reader (PerkinElmer).
For measurement of BRG1 degradation, a stable HeLa cell line expressing HiBit-BRG1 and LgBit was generated. The same protocol as above was then followed.
(§2) The degradation % was calculated using the following formula: % degradation=100%-100%×(LumSample−LumLC)/(LumHC−LumLC). DMSO treated cells are employed as High Control (HC) and 2 μM of a known BRM/BRG1 degrader standard treated cells are employed as Low Control (LC).

HiBit-BRM fusion protein = target: T2, HiBit-BRM fusion protein (Homo sapiens, UniProt P51531); experiment: HiBiT-BRM cell-based degradation assay (Nano-Glo HiBiT Lytic Detection, 24 h); conditions: stable HeLa cell line expressing HiBiT-BRM; for DC50: read-out: BRM HiBit Degradation IC50
T2 construct: expressed in transfected cells
Method: as §1, §2

T2 sequence (P51531 whole entry, the tested form may be a part): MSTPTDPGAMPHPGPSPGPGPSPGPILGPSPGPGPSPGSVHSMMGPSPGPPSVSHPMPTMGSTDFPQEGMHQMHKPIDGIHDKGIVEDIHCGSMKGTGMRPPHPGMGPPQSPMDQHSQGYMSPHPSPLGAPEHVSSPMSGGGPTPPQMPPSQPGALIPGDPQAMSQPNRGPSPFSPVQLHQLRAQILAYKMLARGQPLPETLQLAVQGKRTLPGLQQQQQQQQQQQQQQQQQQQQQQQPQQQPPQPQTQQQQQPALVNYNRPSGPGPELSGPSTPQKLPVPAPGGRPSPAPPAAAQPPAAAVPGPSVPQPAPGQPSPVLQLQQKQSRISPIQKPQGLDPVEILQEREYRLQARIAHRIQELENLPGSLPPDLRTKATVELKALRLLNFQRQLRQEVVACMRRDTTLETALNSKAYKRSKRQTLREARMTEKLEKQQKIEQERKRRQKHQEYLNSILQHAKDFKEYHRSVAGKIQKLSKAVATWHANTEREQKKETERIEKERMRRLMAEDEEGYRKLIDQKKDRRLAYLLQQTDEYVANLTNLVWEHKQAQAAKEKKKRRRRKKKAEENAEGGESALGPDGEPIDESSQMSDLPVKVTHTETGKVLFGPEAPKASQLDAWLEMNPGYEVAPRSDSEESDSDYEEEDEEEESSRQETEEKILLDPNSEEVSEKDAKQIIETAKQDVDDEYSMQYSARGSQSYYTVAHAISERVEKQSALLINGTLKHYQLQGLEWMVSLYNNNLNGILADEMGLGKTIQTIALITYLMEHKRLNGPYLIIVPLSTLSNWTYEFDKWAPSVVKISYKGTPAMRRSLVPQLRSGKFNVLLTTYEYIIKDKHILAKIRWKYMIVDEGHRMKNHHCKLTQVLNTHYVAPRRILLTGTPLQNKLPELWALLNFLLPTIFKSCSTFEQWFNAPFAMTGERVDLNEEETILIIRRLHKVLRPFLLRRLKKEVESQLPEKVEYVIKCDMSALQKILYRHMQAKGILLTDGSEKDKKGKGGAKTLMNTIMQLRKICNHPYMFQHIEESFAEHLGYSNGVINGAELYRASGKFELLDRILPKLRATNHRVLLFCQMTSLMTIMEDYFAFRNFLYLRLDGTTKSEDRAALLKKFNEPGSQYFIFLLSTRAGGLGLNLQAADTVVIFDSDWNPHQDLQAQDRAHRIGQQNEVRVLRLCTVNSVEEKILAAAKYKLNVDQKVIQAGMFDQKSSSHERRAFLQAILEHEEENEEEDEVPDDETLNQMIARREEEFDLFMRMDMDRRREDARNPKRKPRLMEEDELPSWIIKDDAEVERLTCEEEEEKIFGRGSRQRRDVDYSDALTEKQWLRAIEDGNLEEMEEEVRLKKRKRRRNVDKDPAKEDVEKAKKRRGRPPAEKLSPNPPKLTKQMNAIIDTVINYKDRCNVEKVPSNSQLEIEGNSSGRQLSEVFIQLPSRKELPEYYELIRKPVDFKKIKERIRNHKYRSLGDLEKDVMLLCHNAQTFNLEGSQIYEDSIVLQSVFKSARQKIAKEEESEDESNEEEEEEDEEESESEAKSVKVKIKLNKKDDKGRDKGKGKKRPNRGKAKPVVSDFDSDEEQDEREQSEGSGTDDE
T1 sequence (P51532 whole entry, the tested form may be a part): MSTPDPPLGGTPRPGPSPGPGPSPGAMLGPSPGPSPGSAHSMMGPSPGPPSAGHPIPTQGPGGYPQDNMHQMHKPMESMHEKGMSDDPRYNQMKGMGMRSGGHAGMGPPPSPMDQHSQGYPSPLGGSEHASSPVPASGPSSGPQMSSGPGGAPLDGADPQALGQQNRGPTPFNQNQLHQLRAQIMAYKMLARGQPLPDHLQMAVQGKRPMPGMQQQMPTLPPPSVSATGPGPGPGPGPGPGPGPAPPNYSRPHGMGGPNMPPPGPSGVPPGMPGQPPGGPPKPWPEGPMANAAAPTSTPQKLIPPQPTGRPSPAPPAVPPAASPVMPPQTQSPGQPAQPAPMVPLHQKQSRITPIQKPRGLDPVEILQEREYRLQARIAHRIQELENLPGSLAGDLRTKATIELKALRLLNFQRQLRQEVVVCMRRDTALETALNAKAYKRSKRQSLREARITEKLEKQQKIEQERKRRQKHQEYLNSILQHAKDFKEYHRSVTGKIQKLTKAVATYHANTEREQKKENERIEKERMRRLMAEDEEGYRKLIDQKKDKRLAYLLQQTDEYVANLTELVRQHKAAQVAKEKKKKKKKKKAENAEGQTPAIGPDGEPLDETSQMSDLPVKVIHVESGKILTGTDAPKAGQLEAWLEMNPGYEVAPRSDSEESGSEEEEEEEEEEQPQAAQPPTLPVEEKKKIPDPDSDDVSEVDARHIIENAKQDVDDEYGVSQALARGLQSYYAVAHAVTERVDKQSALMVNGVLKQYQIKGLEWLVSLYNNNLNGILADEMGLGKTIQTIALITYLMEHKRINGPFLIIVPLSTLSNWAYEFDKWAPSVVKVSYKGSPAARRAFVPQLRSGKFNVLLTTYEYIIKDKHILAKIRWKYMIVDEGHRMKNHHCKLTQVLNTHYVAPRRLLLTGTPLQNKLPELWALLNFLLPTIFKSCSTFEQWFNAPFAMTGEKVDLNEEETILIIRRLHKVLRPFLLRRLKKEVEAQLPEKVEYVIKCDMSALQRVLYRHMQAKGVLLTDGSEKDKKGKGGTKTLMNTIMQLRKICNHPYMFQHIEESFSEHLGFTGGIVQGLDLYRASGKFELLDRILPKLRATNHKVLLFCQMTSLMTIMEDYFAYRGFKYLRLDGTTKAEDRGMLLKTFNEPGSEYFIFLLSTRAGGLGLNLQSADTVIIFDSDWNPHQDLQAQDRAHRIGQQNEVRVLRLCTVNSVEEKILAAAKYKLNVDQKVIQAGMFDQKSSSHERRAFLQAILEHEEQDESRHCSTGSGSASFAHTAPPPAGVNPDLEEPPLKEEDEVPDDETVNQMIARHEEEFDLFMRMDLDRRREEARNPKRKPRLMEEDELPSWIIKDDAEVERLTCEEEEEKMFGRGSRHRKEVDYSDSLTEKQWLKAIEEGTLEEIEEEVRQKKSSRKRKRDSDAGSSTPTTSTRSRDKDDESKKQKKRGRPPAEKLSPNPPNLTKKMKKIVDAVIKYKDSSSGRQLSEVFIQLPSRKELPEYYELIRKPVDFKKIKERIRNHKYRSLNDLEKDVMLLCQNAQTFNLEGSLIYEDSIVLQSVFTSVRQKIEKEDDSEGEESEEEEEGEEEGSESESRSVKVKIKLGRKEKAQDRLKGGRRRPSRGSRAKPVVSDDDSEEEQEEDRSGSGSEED

Row | Dmax [1] | DC50 [1] | DC50 (HiBit-BRM fusion protein) | Compound | BRM HiBit Degradation Maximum (%) (HiBit-BRM fusion protein)
1 | > 75% | > 100 nM | > 10 nM | Cc1ncsc1-c1ccc([C@H](C)NC(=O)[C@@H]2C[C@@H](O)CN2C(=O)[C@@H](c2cc(N3CCC4(CC3)CC(c3cc5cc(-c6ccccc6O)nnc5s3)C4)no2)C(C)C)cc1 [Compound 98, (2S,4R)-4-hydroxy-1-((R)-2-(3-(2-(3-(2-hydroxyphenyl)thieno[2,3-c]pyridazin-6-yl)-7-azaspiro[3.5]nonan-7-yl)isoxazol-5-yl)-3-methylbutanoyl)-N-((S)-1-(4-(4-methylthiazol-5-yl)phenyl)ethyl)pyrrolidine-2-carboxamide] | A (“A” indicates maximum degradation ≥75%)
2 | < 50% | – | < 10 nM | Cc1ncsc1-c1ccc([C@H](C)NC(=O)[C@@H]2C[C@@H](O)CN2C(=O)[C@@H](c2cc(N3C[C@@H]4[C@H](C3)[C@H]4c3cc4nnc(-c5ccccc5O)cc4s3)no2)C(C)C)cc1 [Compound 70, (2S,4R)-4-hydroxy-1-((2R)-2-(3-((1R,5S)-6-(3-(2-hydroxyphenyl)thieno[3,2-c]pyridazin-6-yl)-3-azabicyclo[3.1.0]hexan-3-yl)isoxazol-5-yl)-3-methylbutanoyl)-N-((S)-1-(4-(4-methylthiazol-5-yl)phenyl)ethyl)pyrrolidine-2-carboxamide] | B (“B” indicates maximum degradation ≥50%)
3 | < 50% | > 1000 nM | > 1000 nM | Cc1ncsc1-c1ccc([C@H](C)NC(=O)[C@@H]2C[C@@H](O)CN2C(=O)[C@@H](c2cc(Oc3ccnc(N4CCC(c5sc6nnc(-c7ccccc7O)cc6c5C)CC4)n3)no2)C(C)C)cc1 (single isomer, unassigned) [Compound 62] | C (“C” indicates maximum degradation <50%)
4 | < 50% | – | > 10 nM | Cc1ncsc1-c1ccc([C@H](C)NC(=O)[C@@H]2C[C@@H](O)CN2C(=O)[C@@H](c2cc(N3CCC4(CCC(c5sc6nnc(-c7ccccc7O)cc6c5C)CC4)CC3)no2)C(C)C)cc1 [Compound 85, (2S,4R)-4-hydroxy-1-((R)-2-(3-(9-(3-(2-hydroxyphenyl)-5-methylthieno[2,3-c]pyridazin-6-yl)-3-azaspiro[5.5]undecan-3-yl)isoxazol-5-yl)-3-methylbutanoyl)-N-((S)-1-(4-(4-methylthiazol-5-yl)phenyl)ethyl)pyrrolidine-2-carboxamide] | A (“A” indicates maximum degradation ≥75%)
5 | < 50% | > 1000 nM | < 10 nM | Cc1ncsc1-c1ccc([C@H](C)NC(=O)[C@@H]2C[C@@H](O)CN2C(=O)[C@@H](c2cc(-c3cnc(N4CCC(c5cc6nnc(-c7ccccc7O)cc6s5)CC4)nc3)no2)C(C)C)cc1 [Compound 55, (2S,4R)-4-hydroxy-1-((R)-2-(3-(2-(4-(3-(2-hydroxyphenyl)thieno[3,2-c]pyridazin-6-yl)piperidin-1-yl)pyrimidin-5-yl)isoxazol-5-yl)-3-methylbutanoyl)-N-((S)-1-(4-(4-methylthiazol-5-yl)phenyl)ethyl)pyrrolidine-2-carboxamide] | A (“A” indicates maximum degradation ≥75%)

Further lines, the compound ahead of its results:

Row | Compound | Dmax [1] | DC50 [1] | DC50 (HiBit-BRM fusion protein) | BRM HiBit Degradation Maximum (%) (HiBit-BRM fusion protein)
6 | Cc1nc(N2CCC(c3sc4nnc(-c5ccccc5O)cc4c3C)CC2)ccc1-c1noc(C(C(=O)N2C[C@H](O)C[C@H]2C(=O)N[C@@H](C)c2ccc(-c3scnc3C)cc2)C(C)C)c1Cl (stereo in doubt) [Compound 21, (2S,4R)-1-((S)-2-(4-chloro-3-(6-(4-(3-(2-hydroxyphenyl)-5-methylthieno[2,3-c]pyridazin-6-yl)piperidin-1-yl)-2-methylpyridin-3-yl)isoxazol-5-yl)-3-methylbutanoyl)-4-hydroxy-N-((S)-1-(4-(4-methylthiazol-5-yl)phenyl)ethyl)pyrrolidine-2-carboxamide] | > 50% | > 100 nM | > 10 nM | A (“A” indicates maximum degradation ≥75%)
7 | Cc1ncsc1-c1ccc([C@H](C)NC(=O)[C@@H]2C[C@@H](O)CN2C(=O)[C@@H](c2cc(-c3ccc(N4CCC(c5sc6nnc(-c7ccccc7O)cc6c5C)CC4)cn3)no2)C(C)C)cc1 [Compound 34, (2S,4R)-4-hydroxy-1-((R)-2-(3-(5-(4-(3-(2-hydroxyphenyl)-5-methylthieno[2,3-c]pyridazin-6-yl)piperidin-1-yl)pyridin-2-yl)isoxazol-5-yl)-3-methylbutanoyl)-N-((S)-1-(4-(4-methylthiazol-5-yl)phenyl)ethyl)pyrrolidine-2-carboxamide] | < 50% | > 1000 nM | < 10 nM | A (“A” indicates maximum degradation ≥75%)
8 | Cc1ncsc1-c1ccc([C@H](C)NC(=O)[C@@H]2C[C@@H](O)CN2C(=O)[C@@H](c2cc(-c3ccc(N4CC(c5sc6nnc(-c7ccccc7O)cc6c5C)C4)nc3)no2)C(C)C)cc1 [Compound 49, (2S,4R)-4-hydroxy-1-((R)-2-(3-(6-(3-(3-(2-hydroxyphenyl)-5-methylthieno[2,3-c]pyridazin-6-yl)azetidin-1-yl)pyridin-3-yl)isoxazol-5-yl)-3-methylbutanoyl)-N-((S)-1-(4-(4-methylthiazol-5-yl)phenyl)ethyl)pyrrolidine-2-carboxamide] | < 50% | > 1000 nM | > 10 nM | B (“B” indicates maximum degradation ≥50%)
9 | Cc1ncsc1-c1ccc([C@H](C)NC(=O)[C@@H]2C[C@@H](O)CN2C(=O)[C@@H](c2cc(-c3ccnc(N4CC[C@H](c5sc6nnc(-c7ccccc7O)cc6c5C)C4)n3)no2)C(C)C)cc1 [Compound 8, (2S,4R)-4-hydroxy-1-((R)-2-(3-(2-((S)-3-(3-(2-hydroxyphenyl)-5-methylthieno[2,3-c]pyridazin-6-yl)pyrrolidin-1-yl)pyrimidin-4-yl)isoxazol-5-yl)-3-methylbutanoyl)-N-((S)-1-(4-(4-methylthiazol-5-yl)phenyl)ethyl)pyrrolidine-2-carboxamide] | < 50% | > 1000 nM | > 10 nM | A (“A” indicates maximum degradation ≥75%)
10 | Cc1ncsc1-c1ccc([C@H](C)NC(=O)[C@@H]2C[C@@H](O)CN2C(=O)[C@@H](c2cc(-c3cnc(N4C[C@@H]5[C@H](C4)[C@H]5c4sc5nnc(-c6ccccc6O)cc5c4C)nc3)no2)C(C)C)cc1 (stereo in doubt) [Compound 40, (2S,4R)-4-hydroxy-1-((R)-2-(3-(2-((1R,5R)-6-(3-(2-hydroxyphenyl)-5-methylthieno[2,3-c]pyridazin-6-yl)-3-azabicyclo[3.1.0]hexan-3-yl)pyrimidin-5-yl)isoxazol-5-yl)-3-methylbutanoyl)-N-((S)-1-(4-(4-methylthiazol-5-yl)phenyl)ethyl)pyrrolidine-2-carboxamide] | < 50% | > 100 nM | < 10 nM | A (“A” indicates maximum degradation ≥75%)
